Our source for the IC50 values is US11547697B2, “Heterocyclic compounds and uses thereof” (MILLENNIUM PHARMACEUTICALS, INC., priority 2009, dated 2023).

What all share (type): biochemical
In one assay the target is p110γ (Homo sapiens (Human), UniProt P48736). The experiment in a line: PI 3-Kinase (human) HTRF assay, p110γ. Background: In TR-FRET formats the signal depends on donor and acceptor labels being close together.
A further assay concerns the target p110α/p85α (Homo sapiens (Human), UniProt P42336). Briefly: PI 3-Kinase (human) HTRF assay, p110α/p85α.
The next assay addresses p110δ/p85α (Homo sapiens (Human), UniProt O00329). Briefly: PI 3-Kinase (human) HTRF assay, p110δ/p85α.
Another assay has as its target p110β/p85α (Homo sapiens (Human), UniProt P42338). Briefly: PI 3-Kinase (human) HTRF assay, p110β/p85α.
Where [1] appears, read: in vitro, read-out: PI3K γ IC50.
[2] abbreviates: in vitro, read-out: PI3K α IC50.
[3] abbreviates: in vitro, read-out: PI3K δ IC50.
Setting [4] is: in vitro, read-out: PI3K β IC50.

One may read the IC50 as the concentration needed to halve the response being measured.

Read-outs that look alike come from different tables or passages of the source.

Chain of p110δ/p85α (O00329 whole entry): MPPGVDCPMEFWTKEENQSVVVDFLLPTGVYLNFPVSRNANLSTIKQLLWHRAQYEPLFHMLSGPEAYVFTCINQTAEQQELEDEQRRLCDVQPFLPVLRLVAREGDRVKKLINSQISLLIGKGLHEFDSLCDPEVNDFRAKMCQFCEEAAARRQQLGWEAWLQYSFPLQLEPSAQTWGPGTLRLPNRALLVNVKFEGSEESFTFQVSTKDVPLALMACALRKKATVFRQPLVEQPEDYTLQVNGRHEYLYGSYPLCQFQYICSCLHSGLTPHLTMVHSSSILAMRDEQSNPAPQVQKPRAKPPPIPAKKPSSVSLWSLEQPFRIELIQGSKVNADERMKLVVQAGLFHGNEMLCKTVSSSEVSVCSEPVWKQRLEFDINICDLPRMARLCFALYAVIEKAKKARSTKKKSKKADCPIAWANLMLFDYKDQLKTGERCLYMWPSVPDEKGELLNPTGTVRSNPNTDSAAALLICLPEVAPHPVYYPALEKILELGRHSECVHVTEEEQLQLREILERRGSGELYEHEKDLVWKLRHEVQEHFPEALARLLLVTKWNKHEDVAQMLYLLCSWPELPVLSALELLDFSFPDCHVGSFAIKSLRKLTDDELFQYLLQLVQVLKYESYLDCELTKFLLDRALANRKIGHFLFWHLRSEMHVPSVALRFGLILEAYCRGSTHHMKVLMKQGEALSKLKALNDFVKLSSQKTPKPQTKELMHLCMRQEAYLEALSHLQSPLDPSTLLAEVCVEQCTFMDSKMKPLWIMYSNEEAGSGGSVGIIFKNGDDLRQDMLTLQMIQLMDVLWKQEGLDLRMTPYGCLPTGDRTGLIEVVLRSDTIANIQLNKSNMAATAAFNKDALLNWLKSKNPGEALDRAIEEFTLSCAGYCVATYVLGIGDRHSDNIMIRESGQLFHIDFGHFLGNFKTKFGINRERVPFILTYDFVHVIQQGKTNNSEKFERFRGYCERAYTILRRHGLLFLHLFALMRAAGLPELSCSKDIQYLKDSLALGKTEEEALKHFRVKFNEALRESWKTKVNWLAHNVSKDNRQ
Chain of p110δ/p85α (P27986 whole entry partner): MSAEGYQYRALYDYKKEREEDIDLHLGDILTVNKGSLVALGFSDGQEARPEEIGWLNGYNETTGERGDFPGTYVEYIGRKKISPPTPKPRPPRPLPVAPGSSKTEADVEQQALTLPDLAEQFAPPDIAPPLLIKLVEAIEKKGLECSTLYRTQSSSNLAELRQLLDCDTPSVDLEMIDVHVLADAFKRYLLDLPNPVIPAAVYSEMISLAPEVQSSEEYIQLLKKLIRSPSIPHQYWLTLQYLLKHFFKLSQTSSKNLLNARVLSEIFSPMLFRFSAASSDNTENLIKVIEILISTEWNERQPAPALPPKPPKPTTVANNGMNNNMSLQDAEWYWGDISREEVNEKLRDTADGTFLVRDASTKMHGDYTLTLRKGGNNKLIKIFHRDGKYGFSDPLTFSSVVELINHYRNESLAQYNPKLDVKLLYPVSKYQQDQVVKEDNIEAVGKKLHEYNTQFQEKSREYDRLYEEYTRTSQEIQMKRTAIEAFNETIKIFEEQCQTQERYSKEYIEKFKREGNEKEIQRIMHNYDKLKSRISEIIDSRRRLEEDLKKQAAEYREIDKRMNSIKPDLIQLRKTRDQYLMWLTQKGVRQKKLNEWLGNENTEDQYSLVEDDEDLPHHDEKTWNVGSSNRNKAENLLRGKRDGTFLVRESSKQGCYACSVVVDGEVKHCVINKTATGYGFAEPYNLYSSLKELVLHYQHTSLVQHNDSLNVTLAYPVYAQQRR
Chain of p110γ (P48736 whole entry): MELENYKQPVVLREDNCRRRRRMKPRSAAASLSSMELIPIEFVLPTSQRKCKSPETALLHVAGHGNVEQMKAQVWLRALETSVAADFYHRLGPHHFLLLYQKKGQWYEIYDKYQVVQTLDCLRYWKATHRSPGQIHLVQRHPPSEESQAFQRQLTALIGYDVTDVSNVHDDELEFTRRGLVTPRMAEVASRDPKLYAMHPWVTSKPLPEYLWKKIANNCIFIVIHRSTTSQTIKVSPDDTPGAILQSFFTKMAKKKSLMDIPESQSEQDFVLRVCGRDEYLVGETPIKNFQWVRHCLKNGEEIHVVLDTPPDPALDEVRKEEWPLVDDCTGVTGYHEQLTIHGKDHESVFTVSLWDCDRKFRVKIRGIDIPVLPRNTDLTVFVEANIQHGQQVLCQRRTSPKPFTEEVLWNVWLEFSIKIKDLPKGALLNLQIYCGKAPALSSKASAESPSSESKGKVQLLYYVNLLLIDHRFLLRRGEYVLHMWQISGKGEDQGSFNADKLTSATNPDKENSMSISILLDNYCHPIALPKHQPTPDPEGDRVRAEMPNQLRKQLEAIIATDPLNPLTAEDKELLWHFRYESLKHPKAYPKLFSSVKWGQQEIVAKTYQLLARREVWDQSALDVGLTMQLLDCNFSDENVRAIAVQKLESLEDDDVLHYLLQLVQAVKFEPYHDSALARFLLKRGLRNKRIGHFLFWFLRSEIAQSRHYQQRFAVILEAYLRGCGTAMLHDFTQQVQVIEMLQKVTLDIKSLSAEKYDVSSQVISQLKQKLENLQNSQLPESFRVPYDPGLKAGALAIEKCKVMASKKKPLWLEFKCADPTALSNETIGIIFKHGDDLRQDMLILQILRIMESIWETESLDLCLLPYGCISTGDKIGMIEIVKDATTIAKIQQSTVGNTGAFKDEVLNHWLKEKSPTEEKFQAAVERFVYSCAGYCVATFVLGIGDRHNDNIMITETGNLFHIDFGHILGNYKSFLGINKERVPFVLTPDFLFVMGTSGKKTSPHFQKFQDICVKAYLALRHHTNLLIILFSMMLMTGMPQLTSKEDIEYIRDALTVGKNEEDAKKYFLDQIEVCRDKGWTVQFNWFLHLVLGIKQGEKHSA
Chain of p110β/p85α (P42338 whole entry): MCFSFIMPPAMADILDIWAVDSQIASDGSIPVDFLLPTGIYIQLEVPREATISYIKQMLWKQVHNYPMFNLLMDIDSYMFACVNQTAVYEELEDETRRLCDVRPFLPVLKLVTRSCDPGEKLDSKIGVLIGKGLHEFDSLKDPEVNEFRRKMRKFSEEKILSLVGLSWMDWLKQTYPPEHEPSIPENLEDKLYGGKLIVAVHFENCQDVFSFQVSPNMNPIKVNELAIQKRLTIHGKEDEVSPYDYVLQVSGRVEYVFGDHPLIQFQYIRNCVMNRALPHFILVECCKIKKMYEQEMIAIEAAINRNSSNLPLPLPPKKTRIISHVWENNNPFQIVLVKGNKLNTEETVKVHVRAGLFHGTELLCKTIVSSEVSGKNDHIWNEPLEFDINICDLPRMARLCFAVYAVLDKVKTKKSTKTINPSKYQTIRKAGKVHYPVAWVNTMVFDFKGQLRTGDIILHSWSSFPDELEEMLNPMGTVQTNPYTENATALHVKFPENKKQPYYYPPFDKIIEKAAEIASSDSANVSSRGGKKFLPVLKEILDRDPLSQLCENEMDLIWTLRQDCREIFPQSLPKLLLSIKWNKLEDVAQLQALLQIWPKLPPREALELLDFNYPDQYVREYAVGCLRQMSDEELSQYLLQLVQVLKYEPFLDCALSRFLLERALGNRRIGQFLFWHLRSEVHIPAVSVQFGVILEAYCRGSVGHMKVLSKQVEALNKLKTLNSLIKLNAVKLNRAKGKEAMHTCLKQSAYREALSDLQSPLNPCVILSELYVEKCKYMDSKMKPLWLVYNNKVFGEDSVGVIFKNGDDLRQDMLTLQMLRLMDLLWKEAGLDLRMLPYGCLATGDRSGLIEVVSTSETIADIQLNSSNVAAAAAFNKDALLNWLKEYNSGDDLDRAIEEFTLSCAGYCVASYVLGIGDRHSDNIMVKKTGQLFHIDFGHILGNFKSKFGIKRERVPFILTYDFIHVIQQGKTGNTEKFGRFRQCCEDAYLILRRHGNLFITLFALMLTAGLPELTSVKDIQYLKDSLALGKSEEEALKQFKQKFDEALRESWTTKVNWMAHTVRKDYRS
Chain of p110β/p85α (P27986 whole entry partner): as the sequence (P27986 whole entry partner) above
Chain of p110α/p85α (P42336 whole entry): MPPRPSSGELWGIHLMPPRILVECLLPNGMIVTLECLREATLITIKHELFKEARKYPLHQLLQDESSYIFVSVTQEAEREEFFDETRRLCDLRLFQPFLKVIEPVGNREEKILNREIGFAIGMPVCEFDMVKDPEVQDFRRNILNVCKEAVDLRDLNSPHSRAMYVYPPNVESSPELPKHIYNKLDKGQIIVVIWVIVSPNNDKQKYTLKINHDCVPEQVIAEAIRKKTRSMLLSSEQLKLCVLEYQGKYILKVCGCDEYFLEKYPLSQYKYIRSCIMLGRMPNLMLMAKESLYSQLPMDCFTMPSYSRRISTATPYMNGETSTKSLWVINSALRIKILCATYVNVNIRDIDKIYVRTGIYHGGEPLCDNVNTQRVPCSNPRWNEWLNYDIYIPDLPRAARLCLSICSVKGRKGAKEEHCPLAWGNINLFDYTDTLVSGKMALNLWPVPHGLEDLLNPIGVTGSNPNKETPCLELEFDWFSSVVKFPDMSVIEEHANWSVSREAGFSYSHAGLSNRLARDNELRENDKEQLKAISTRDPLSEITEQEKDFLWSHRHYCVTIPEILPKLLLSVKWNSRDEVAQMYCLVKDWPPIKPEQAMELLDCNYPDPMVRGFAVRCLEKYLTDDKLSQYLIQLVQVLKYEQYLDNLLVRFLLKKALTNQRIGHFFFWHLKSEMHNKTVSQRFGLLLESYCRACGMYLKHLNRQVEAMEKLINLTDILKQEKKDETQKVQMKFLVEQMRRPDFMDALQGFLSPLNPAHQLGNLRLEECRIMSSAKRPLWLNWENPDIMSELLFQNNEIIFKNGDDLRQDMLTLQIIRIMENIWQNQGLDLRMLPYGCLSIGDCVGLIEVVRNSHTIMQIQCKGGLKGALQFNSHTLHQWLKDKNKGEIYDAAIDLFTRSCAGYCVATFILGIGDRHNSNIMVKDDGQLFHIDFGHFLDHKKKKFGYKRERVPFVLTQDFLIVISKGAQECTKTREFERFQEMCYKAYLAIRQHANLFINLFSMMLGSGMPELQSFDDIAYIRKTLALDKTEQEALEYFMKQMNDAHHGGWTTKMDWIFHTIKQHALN
Chain of p110α/p85α (P27986 whole entry partner): as the sequence (P27986 whole entry partner) above

With `Cc1cn(C2CN(c3cnc4ccc(-c5ccc6oc(N)nc6c5)cc4n3)C2)cn1` [compound 339], the IC50 at p110γ (setting [1]) is less than 1000 nM; at p110α/p85α (setting [2]) it was less than 100 nM; on p110δ/p85α (setting [3]), less than 1000 nM; at p110β/p85α (setting [4]), less than 1000 nM.
As for `Cc1nccn1C1CCN(c2cnc3ccc(-c4ccc5oc(N)nc5c4)cc3n2)CC1` [compound 344], the IC50 was less than 10000 nM on p110γ (setting [1]), less than 100 nM on p110α/p85α (setting [2]), less than 1000 nM at p110δ/p85α (setting [3]) and less than 10000 nM at p110β/p85α (setting [4]).
For `Cc1cc(-c2ccc3oc(N)nc3c2)cc2c(C(=O)N3CCOCC3)cnn12` [compound 357], the IC50 at p110γ (setting [1]) was less than 1000 nM; on p110α/p85α (setting [2]) it was less than 1000 nM; on p110δ/p85α (setting [3]), less than 10000 nM; at p110β/p85α (setting [4]), less than 10000 nM.
For `Nc1nc2cc(-c3ccc4ncc(N5CC(N6CCOCC6)C5)nc4c3)cc(Cl)c2o1` [compound 358], the IC50 is less than 1000 nM at p110γ (setting [1]), less than 100 nM at p110α/p85α (setting [2]), less than 1000 nM at p110δ/p85α (setting [3]) and less than 1000 nM on p110β/p85α (setting [4]).
On to `Nc1nc2cc(-c3ccc4ncc(C(=O)N5CCOCC5)n4c3)cc(Cl)c2o1` [compound 359], for which the IC50 is less than 100 nM at p110γ (setting [1]), less than 100 nM at p110α/p85α (setting [2]), less than 10000 nM on p110δ/p85α (setting [3]) and less than 1000 nM at p110β/p85α (setting [4]).
Take `Nc1nc2cc(-c3ccc4ncc(C(=O)N5CCOCC5)n4c3)cc(F)c2o1` [compound 360]: the IC50 on p110γ (setting [1]) was less than 100 nM; on p110α/p85α (setting [2]) it was less than 100 nM; at p110δ/p85α (setting [3]) it was less than 10000 nM; on p110β/p85α (setting [4]), less than 1000 nM.
`Nc1nc2cc(-c3ccc4ncc(N5CC(N6CCOCC6)C5)nc4c3)cc(F)c2o1` [compound 361]: the IC50 was less than 1000 nM at p110γ (setting [1]), less than 100 nM on p110α/p85α (setting [2]), less than 10000 nM at p110δ/p85α (setting [3]) and less than 1000 nM at p110β/p85α (setting [4]).
As to `Cc1cc(-c2ccc3ncc(N4CC(N5CCOCC5)C4)nc3c2)cc2nc(N)oc12` [compound 365], the IC50 on p110γ (setting [1]), on p110α/p85α (setting [2]), at p110δ/p85α (setting [3]) and at p110β/p85α (setting [4]) was less than 10000 nM in each case.
Regarding `Nc1nc2cc(-c3ccc4ncc(N5CC(N)C5)nc4c3)ccc2o1` [compound 367], the IC50 on p110γ (setting [1]) was less than 1000 nM; on p110α/p85α (setting [2]), less than 1000 nM; on p110δ/p85α (setting [3]), less than 10000 nM; at p110β/p85α (setting [4]), less than 1000 nM.
In the case of `Cc1cc(-c2ccc3oc(N)nc3c2)cc2c(C(=O)N3CCCC3)cnn12` [compound 368], the IC50 at p110γ (setting [1]) was less than 1000 nM; at p110α/p85α (setting [2]), less than 100 nM; at p110δ/p85α (setting [3]), less than 1000 nM; on p110β/p85α (setting [4]), less than 10000 nM.
Turning to `Nc1nc2cc(-c3ccc4ncc(C(=O)N5CCOCC5)n4c3)c(F)cc2o1` [compound 372], the IC50 on p110γ (setting [1]) is less than 10000 nM; on p110α/p85α (setting [2]) it was less than 1000 nM; on p110δ/p85α (setting [3]) it was less than 10000 nM; at p110β/p85α (setting [4]) it was less than 10000 nM.
For `Nc1nc2cc(-c3ccc4ncc(N5CC(N6CCOCC6)C5)nc4c3)c(F)cc2o1` [compound 373], the IC50 at p110γ (setting [1]) was less than 10000 nM; on p110α/p85α (setting [2]), less than 100 nM; on p110δ/p85α (setting [3]), less than 10000 nM; on p110β/p85α (setting [4]), less than 10000 nM.
With `Nc1nc2cc(-c3ccc4ncc(N5CC[C@H](N6CCOCC6)C5)nc4c3)ccc2o1` [compound 375], the IC50 on p110γ (setting [1]) was less than 1000 nM; on p110α/p85α (setting [2]) it was less than 1000 nM; at p110δ/p85α (setting [3]), less than 1000 nM; on p110β/p85α (setting [4]), less than 10000 nM.
Take `Nc1nc2cc(-c3ccc4ncc(N5CC[C@@H](N6CCOCC6)C5)nc4c3)ccc2o1` [compound 376]: the IC50 on p110γ (setting [1]) is less than 100 nM; at p110α/p85α (setting [2]), less than 100 nM; at p110δ/p85α (setting [3]), less than 10000 nM; at p110β/p85α (setting [4]) it was less than 10000 nM.
In the case of `CN1CCN([C@H]2CCN(c3cnc4ccc(-c5ccc6oc(N)nc6c5)cc4n3)C2)CC1` [compound 381], the IC50 on p110γ (setting [1]) was less than 10000 nM; on p110α/p85α (setting [2]) it was less than 100 nM; at p110δ/p85α (setting [3]) it was less than 10000 nM; on p110β/p85α (setting [4]), less than 1000 nM.
For `CN(C)[C@H]1CCN(c2cnc3ccc(-c4ccc5oc(N)nc5c4)cc3n2)C1` [compound 382], the IC50 at p110γ (setting [1]) is less than 1000 nM; on p110α/p85α (setting [2]), less than 100 nM; on p110δ/p85α (setting [3]), less than 10000 nM; on p110β/p85α (setting [4]), less than 1000 nM.
Turning to `Nc1nc2cc(-c3ccc4ncc(N5CCn6cccc6C5)nc4c3)ccc2o1` [compound 394], the IC50 is less than 100 nM at p110γ (setting [1]), less than 100 nM at p110α/p85α (setting [2]), less than 1000 nM at p110δ/p85α (setting [3]) and less than 100 nM on p110β/p85α (setting [4]).
On to `Cc1cc(-c2ccc3oc(N)nc3c2)cc2c(-c3ccncc3)cnn12` [compound 397], for which the IC50 is less than 100 nM at p110γ (read-out: PI3K γ In Vitro IC50), less than 100 nM at p110α/p85α (read-out: PI3K α In Vitro IC50), less than 1000 nM on p110δ/p85α (read-out: PI3K δ In Vitro IC50) and less than 1000 nM on p110β/p85α (read-out: PI3K β In Vitro IC50).
As to `Nc1nc2cc(-c3ccn4ncc(C(=O)N5CCC(N6CCOCC6)CC5)c4c3)ccc2o1` [compound 398], the IC50 on p110γ (read-out: PI3K γ In Vitro IC50) is less than 10000 nM; on p110α/p85α (read-out: PI3K α In Vitro IC50), less than 1000 nM; on p110δ/p85α (read-out: PI3K δ In Vitro IC50) it was less than 10000 nM; at p110β/p85α (read-out: PI3K β In Vitro IC50) it was less than 10000 nM.
Take `CC(Oc1nc(-c2ccc3ncc(C(=O)N4CCOCC4)n3c2)cnc1N)C(F)(F)F` (centres unmarked) [compound 411]: the IC50 at p110γ (read-out: PI3K γ In Vitro IC50) was less than 1000 nM; on p110α/p85α (read-out: PI3K α In Vitro IC50), less than 100 nM; at p110δ/p85α (read-out: PI3K δ In Vitro IC50), less than 10000 nM; on p110β/p85α (read-out: PI3K β In Vitro IC50), less than 10000 nM.
Take `Nc1nc2cc(-c3ccc4ncc(N5CCNC(C(F)F)C5)nc4c3)ccc2o1` (centres unmarked) [compound 413]: the IC50 at p110γ (read-out: PI3K γ In Vitro IC50) is less than 1000 nM; at p110α/p85α (read-out: PI3K α In Vitro IC50), less than 100 nM; on p110δ/p85α (read-out: PI3K δ In Vitro IC50), less than 10000 nM; on p110β/p85α (read-out: PI3K β In Vitro IC50), less than 1000 nM.
Take `COc1ncc(-c2ccc3ncc(C(=O)N4CCOCC4)n3c2)cc1NS(C)(=O)=O` [compound 416]: the IC50 is less than 1000 nM at p110γ (read-out: PI3K γ In Vitro IC50), less than 100 nM at p110α/p85α (read-out: PI3K α In Vitro IC50), less than 10000 nM at p110δ/p85α (read-out: PI3K δ In Vitro IC50) and less than 10000 nM at p110β/p85α (read-out: PI3K β In Vitro IC50).
On to `COc1ncc(-c2ccc3ncc(C(=O)N4CCOCC4)n3c2)cc1NS(=O)(=O)c1ccc(F)cc1` [compound 421], for which the IC50 on p110γ (read-out: PI3K γ In Vitro IC50) was less than 100 nM; on p110α/p85α (read-out: PI3K α In Vitro IC50) it was less than 100 nM; at p110δ/p85α (read-out: PI3K δ In Vitro IC50), less than 100 nM; at p110β/p85α (read-out: PI3K β In Vitro IC50), less than 1000 nM.
As for `COc1ncc(-c2ccc3ncc(C(=O)N4CCOCC4)n3c2)cc1NS(=O)(=O)c1ccccc1F` [compound 422], the IC50 on p110γ (read-out: PI3K γ In Vitro IC50) was less than 100 nM; on p110α/p85α (read-out: PI3K α In Vitro IC50), less than 100 nM; on p110δ/p85α (read-out: PI3K δ In Vitro IC50), less than 1000 nM; at p110β/p85α (read-out: PI3K β In Vitro IC50), less than 10000 nM.
For the compound `COc1ncc(-c2ccc3ncc(C(=O)N4CCOCC4)n3c2)cc1NS(=O)(=O)c1cccc(F)c1` [compound 423], the IC50 at p110γ (read-out: PI3K γ In Vitro IC50) is less than 100 nM; at p110α/p85α (read-out: PI3K α In Vitro IC50), less than 100 nM; at p110δ/p85α (read-out: PI3K δ In Vitro IC50), less than 100 nM; at p110β/p85α (read-out: PI3K β In Vitro IC50) it was less than 1000 nM.
Take `Nc1nc2ccc(-c3cc(F)c4oc(N)nc4c3)cc2o1` [compound 433]: the IC50 was less than 100 nM at p110γ (read-out: PI3K γ In Vitro IC50), less than 1000 nM at p110α/p85α (read-out: PI3K α In Vitro IC50), less than 10000 nM at p110δ/p85α (read-out: PI3K δ In Vitro IC50) and less than 1000 nM on p110β/p85α (read-out: PI3K β In Vitro IC50).
For `CC(=O)Nc1nc2ccc(-c3cc(F)c4oc(N)nc4c3)cc2s1` [compound 434], the IC50 on p110γ (read-out: PI3K γ In Vitro IC50), on p110α/p85α (read-out: PI3K α In Vitro IC50), on p110δ/p85α (read-out: PI3K δ In Vitro IC50) and on p110β/p85α (read-out: PI3K β In Vitro IC50) was less than 100 nM throughout.
As to `Nc1nc2cc(-c3ccc4nc(N)sc4c3)cc(F)c2o1` [compound 436], the IC50 at p110γ (read-out: PI3K γ In Vitro IC50) is less than 100 nM; at p110α/p85α (read-out: PI3K α In Vitro IC50), less than 100 nM; at p110δ/p85α (read-out: PI3K δ In Vitro IC50), less than 1000 nM; at p110β/p85α (read-out: PI3K β In Vitro IC50), less than 100 nM.
As to `O=C(c1cnc2ccc(-c3ccc(Cl)c(NS(=O)(=O)c4ccc(F)cc4F)c3)cn12)N1CCOCC1` [compound 461], the IC50 is less than 10000 nM at p110γ (read-out: PI3K γ In Vitro IC50), less than 1000 nM on p110α/p85α (read-out: PI3K α In Vitro IC50), less than 10000 nM at p110δ/p85α (read-out: PI3K δ In Vitro IC50) and less than 10000 nM at p110β/p85α (read-out: PI3K β In Vitro IC50).
